37 molecules from patent US8362066B2, “Compounds and methods for treating protein folding disorders” (Treventis Corporation, priority 2006, dated 2013) can be followed below.

pIC50: −log10 of the molar value.

What all share (assay type): biochemical
Assay [1] concerns the target T1, Aβ1-40 (Homo sapiens, UniProt P05067).
T1 construct: Both Aβ1-40 and Aβ1-42 were purchased from Anaspec; purchased Anaspec
The assay can be described thus: ThT fluorescence assay, inhibition of Aβ1-40 aggregation. The procedure:
The compounds of the invention were evaluated for activity against Aβ aggregation in a kinetic thioflavin T (ThT) fluorescence assay similar to that of Chalifour, R. J., et al., J. Biol. Chem. (2003) 278: 34874-81. IC50 values for inhibition of Aβ1-40 aggregation in the ThT fluorescence assay for a number compounds of the present invention were determined. Values were calculated by solving the equation y=(m2)/(1+(x/m3)^m4) where y is percent aggregation, x is compound concentration, and m3 is the concentration giving 50% aggregation (i.e. IC50), using KaleidaGraph 4.0 (Synergy Software). Dye-binding ThT/ThS protein aggregation assays for Aβ, tau and α-synuclein were performed as described in Example 8 of US2007/0015813.

In another assay the target is α-synuclein (Homo sapiens, UniProt P37840). Kind of assay: ThT fluorescence assay, α-synuclein aggregation. The settings on record: α-synuclein 4 μM, 96 hours, 37° C. As for the experimental part: (§1) The following procedures were used. The compounds were examined by circular dichroism (CD) to confirm their anti-amyloidogenic activity and were further evaluated for inhibition of both tau and α-synuclein aggregation in Thioflavin S (ThS) and ThT dye-binding fluorescence assays, respectively. The compounds were also evaluated in a MTT [3-(4,5-dimethylthiazol-2-yl)-2,5-diphenyltetrazolium bromide] cell viability assay (Kaneko, I., et al., J. Neurochem. (1995) 65: 2585-93). Pharmacokinetic (PK) testing was also performed. Compounds administered to mice (IP or PO dosing) had no toxicity at doses up to 300 mg/kg and were present in brain more than four hours after administration.
(§2) Dye-binding ThT/ThS protein aggregation assays for Aβ, tau and α-synuclein were performed as described in Example 8 of US2007/0015813.

For assay [2], the target named is T2, Tau 441 (Homo sapiens, UniProt P10636). Kind of assay: ThS fluorescence assay, Tau 441 aggregation. The following applies: Tau 441 6 μM; compound 50 μM and 10 μM; 24 hours, 37° C., FIG. 15. The procedure:
as §1, §2

In assay [3] the target is T2, Tau 441. The assay can be described thus: Tris-tricine SDS-PAGE, Tau 441 self-assembly following ThS aggregation assay. The settings on record: FIG. 10. As for the experimental part: (§3) Pre-cast polyacrylamide gels were purchased from NuSep (10-20% Tris-tricine-SDS). These were chosen for their large separation range of 2.5 to 205 kDa. Molecular weight markers were purchased from Sigma Aldrich and diluted twenty fold for individual use. Three buffers were used for this technique: 1) Sample buffer (1.25 mL 0.5 M Tris-HCl (pH 6.8), 2.5 mL glycerol, 2.0 mL 10% SDS, 0.2 mL 0.5% bromophenol blue, 3.55 mL distilled water) which was used as the leading band in the gel. 2) Cathode Buffer (12.11 g tris base, 17.92 g tricine, 1 g SDS, diluted to 1 L with distilled water) which was the inner buffer in the tank assembly. 3) Anode Buffer (5× concentrated: 121.1 g tris base in 1 L of distilled water, pH 8.9 adjusted with concentrated HCl) which was the outer buffer and loaded at 1× concentration. Both Aβ1-40 and Aβ1-42 were purchased from Anaspec.
(§4) Five solutions were required to stain the gels using the silver stain protocol: 1) Fixer 1 (40% methanol, 10% acetic acid, diluted to 1 L with Millie-Q water) 2) Fixer 2 (45 g anhydrous sodium acetate, 300 mL methanol, 5 mL 25% glutaraldehyde, diluted to 1 L with Millie-Q water), 3) a) Silver stain A (15 mL of 25% ammonia solution, 0.8 g sodium hydroxide, diluted to 950 mL with Millie Q water). b) Silver stain B (6 g of silver nitrate in 50 mL Millie Q water). Solution B was then slowly added to solution A. 4) Developer (0.1 g citric acid, 1 mL formaldehyde, diluted to 1 L with Millie-Q water), 5) Stop solution (50 mL acetic acid, diluted to 1 L with Millie-Q water).
(§5) Following a ThT (Aβ1-40) or ThS (Tau 441) aggregation assay, described in Example 8 of US2007/0015813, samples were immediately aspirated and stored in centrifuge tubes. 10 μL of each sample was transferred to a microfuge tube and diluted 1:1 with sample buffer before being incubated (37° C.) for 30 minutes and loaded in the precast gels (15 μL in each well). The gel was then run at 100 V for approximately one hour or until the leading band reached the bottom of the gel.
(§6) Once the gel had finished running, it was removed from its plastic case and placed in a tray for staining. Approximately 200-250 mL volume was used for all the solutions. The gel was first washed with distilled water briefly to rinse off the excess buffer from the tank. It was then immersed in Fixer 1 for 30 minutes. followed by Fixer 2 for 30 minutes. Once the gel was fixed it then underwent three water washes at 10 minutes per wash. After the water washes, the gel was stained for 30 minutes using the silver stain solution. Excess stain was removed using three four-minute water washes. The gel was then immersed in the developer solution to visualize the stain. This took place for approximately 5 minutes or until the desired intensity was reached. To immediately stop the developing process the gel was placed in the stop solution for 10 minutes.

Assay [4] addresses T1, Aβ1-40. Kind of assay: Tris-tricine SDS-PAGE, Aβ1-40 self-assembly following ThT aggregation assay. The settings on record: FIG. 9. As for the experimental part: as §3, §4, §5, §6
[5] abbreviates: compound 100 μM and 20 μM, FIG. 16.
The mark [6] stands for this setting: compound 50 μM and 10 μM, FIG. 17.

T1 sequence (P05067 672-711 limits assumed): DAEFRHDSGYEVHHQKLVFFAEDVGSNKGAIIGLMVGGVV
T2 sequence (P10636 1-441 isoform P10636-8): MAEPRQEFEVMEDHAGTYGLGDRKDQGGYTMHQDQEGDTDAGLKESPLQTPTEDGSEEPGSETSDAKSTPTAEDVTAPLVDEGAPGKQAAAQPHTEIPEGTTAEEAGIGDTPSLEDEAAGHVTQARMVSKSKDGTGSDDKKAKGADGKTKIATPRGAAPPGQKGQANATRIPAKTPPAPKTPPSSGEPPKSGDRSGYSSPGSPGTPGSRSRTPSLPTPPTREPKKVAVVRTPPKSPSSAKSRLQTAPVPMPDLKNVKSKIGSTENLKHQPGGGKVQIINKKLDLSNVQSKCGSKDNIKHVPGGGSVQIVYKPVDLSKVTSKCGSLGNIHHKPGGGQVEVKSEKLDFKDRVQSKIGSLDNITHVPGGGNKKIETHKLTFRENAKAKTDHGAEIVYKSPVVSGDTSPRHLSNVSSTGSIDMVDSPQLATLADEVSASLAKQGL

Regarding `Oc1ccc2[nH]cc(CN3CCc4ccccc4C3)c2c1` [QR-0269], at Aβ1-40 [1], the negative logarithm of the IC50 (pIC50) is less than 3.70.

For the molecule `COc1ccc(Nc2ccc(Nc3ccc(OC)cc3)cc2)cc1` [QR-0292], the pIC50 at Aβ1-40 [1] is 6.27.

For `O=C(O)c1cccc2c(-c3cc4ccccc4s3)c[nH]c12` [QR-0261], the negative-log IC50 (pIC50) on Aβ1-40 [1] was 4.99.

For `Oc1ccc2cc(-c3cc4ccccc4o3)ccc2c1Br` [QR-0297, 6-(Benzofuran-2-yl)-1-bromonaphthalen-2-ol], on Aβ1-40 [1], the pIC50 is 6.24.

As for `N#Cc1ccc2[nH]cc(-c3c(O)c(O)cc4ccccc34)c2c1` [QR-0321], the pIC50 at Aβ1-40 [1] is 5.03.

For the molecule `Oc1cc2ccccc2c(-c2c[nH]c3ccccc23)c1O` [QR-0189], the pIC50 on Aβ1-40 [1] was 4.72. The “inhibition of α-synuclein aggregation (ThT fluorescence)” value (shortened to “inhibition of α-synuclein aggregation”) against α-synuclein (setting [5]) is “showed inhibition”.

With `Oc1ccc2cc(-c3ccc4c(c3)OCCO4)ccc2c1` [QR-0229, 6-(2,3-Dihydrobenzo[b][1,4]dioxin-7-yl)naphthalene-2-ol], the pIC50 at Aβ1-40 [1] is 4.72.

For the molecule `COc1ccc2cc(-c3c[nH]c4ccc(C(=O)O)cc34)ccc2c1` [QR-0216], the pIC50 on Aβ1-40 [1] is 4.45.

For `Nc1ccc2[nH]cc(-c3c4ccccc4cc4c3[nH]c3ccc(N)cc34)c2c1` [QR-0302], at Aβ1-40 [1], the pIC50 was 5.49.

Turning to `O=C(O)c1ccc2c(c1)c(-c1ccc3cc(O)ccc3c1)cn2Cc1ccccc1` [QR-0162, 1-Benzyl-3-(6-hydroxynaphthalen-2-yl)-indole-5-carboxylic acid], on Aβ1-40 [1], the pIC50 is 4.76. Besides, on α-synuclein (setting [6]), the “inhibition of α-synuclein aggregation” value was “showed inhibition”.

As for `Oc1ccc(C=Cc2cc(O)cc(O)c2)cc1` [resveratrol, reference compound], the “inhibition of α-synuclein aggregation” value against α-synuclein (setting [5]) was “showed inhibition”.

In the case of `O=C(O)c1cccc2c(-c3c[nH]c4ccc(Br)cc34)c[nH]c12` [QR-0303], at Aβ1-40 [1], the pIC50 is 4.68.

In the case of `COc1cccc(Nc2cccc(Nc3cccc(OC)c3)c2)c1` [QR-0315], the pIC50 on Aβ1-40 [1] was 5.24.

As for `O=C(O)c1cccc2c(-c3ccc4cc(O)ccc4c3)c[nH]c12` [QR-0258, 3-(2-Hydroxynaphthalen-6-yl)-1H-indole-7-carboxylic acid], the pIC50 on Aβ1-40 [1] is 5.00.

In the case of `O=C(O)c1ccc2c(-c3c[nH]c4ccc(O)cc34)c[nH]c2c1` [QR-0253], the pIC50 at Aβ1-40 [1] was 4.93.

Turning to `O=C(O)c1ccc2[nH]cc(-c3c[nH]c4cccc(O)c34)c2c1` [QR-0176], at Aβ1-40 [1], the negative-log IC50 (pIC50) was 5.70. Further, the “inhibition of α-synuclein aggregation” value at α-synuclein (setting [5]) is reported as “showed inhibition”.

For `O=C(O)c1cccc2c(-c3cc4ccccc4o3)c[nH]c12` [QR-0256], the pIC50 on Aβ1-40 [1] was 4.77.

`COc1ccccc1Nc1cccc(Nc2ccccc2OC)c1` [QR-0316]: the pIC50 on Aβ1-40 [1] was less than 4.30.

Regarding `Oc1ccc2[nH]cc(-c3c(O)c(O)cc4ccccc34)c2c1` [QR-0212, 5-hydroxy-3-(2,3-dihydroxyynathalen-1-yl)-1H-indole], the pIC50 on Aβ1-40 [1] is 5.09. On α-synuclein (setting [5]), the “inhibition of α-synuclein aggregation” value was “showed inhibition”.

`Nc1ccc2[nH]cc(-c3c[nH]c4ccc(Br)cc34)c2c1` [QR-0300]: the pIC50 at Aβ1-40 [1] is 5.77.

Regarding `O=C(O)c1cc2cc(-c3cc4ccccc4o3)ccc2c(Br)c1O` [QR-0244, 7-(Benzofuran-2-y)-4-bromo-3-hydroxynaphthalene-2-carboxylic acid], the “inhibition of Tau 441 aggregation (ThS fluorescence)” value on Tau 441 [2] is “greatly inhibited”. On Aβ1-40 [1], the pIC50 is 5.25. Besides, the “Tau 441 dimer and trimer bands (SDS-PAGE)” value at Tau 441 [3] is “appearance of dimer and trimer bands”. Moreover, the “effect on Tau 441 self-assembly, monomer fragmentation (SDS-PAGE)” value at Tau 441 [3] (relative to control) is listed as “decreased fragmentation of tau 441 monomer”.

Consider `O=C(O)c1ccc2[nH]cc(-c3c[nH]c4ccc(O)cc34)c2c1` [QR-0142], for which the “effect on distribution of Aβ1-40 among states of assembly / monomer (SDS-PAGE)” value (“effect … of assembly / monomer (SDS-PAGE)” for short) at Aβ1-40 [4] is reported as “increase in the concentration of Aβ1-40 monomer”.

Consider `COc1c(C(=O)O)cc2cc(-c3ccc4c(c3)OCCO4)ccc2c1Br` [QR-0282, 4-Bromo-7-(2,3-dihydrobenzo[b][1,4]dioxin-7-yl)-3-methoxynaphthalene-2-carboxylic acid], for which, at Aβ1-40 [4], the “Aβ1-40 dimer band (SDS-PAGE)” value was “appearance of a dimer band” and the “effect … of assembly / monomer (SDS-PAGE)” value was “increase in the concentration of Aβ1-40 monomer”.

With `N#Cc1ccc2[nH]cc(-c3c[nH]c4ccc(Br)cc34)c2c1` [QR-0240], the pIC50 at Aβ1-40 [1] is 4.92.

As for `Oc1cc2ccccc2c(-c2ccc3c(c2)OCCO3)c1O` [QR-0231, 1-(2,3-Dihydrobenzo[b][1,4]dioxin-7-yl)-2,3-dihydroxynaphthalene], the pIC50 on Aβ1-40 [1] was 4.56.

Regarding `COc1ccc2[nH]cc(-c3c[nH]c4ccc(C#N)cc34)c2c1` [QR-0238], the negative-log IC50 (pIC50) at Aβ1-40 [1] was 4.68.

For the molecule `O=C(O)c1cccc2c(-c3cc4ccccc4s3)cn(Cc3ccccc3)c12` [QR-0287, 3-(Benzo[b]thiophen-2-yl)-1-benzyl-1H-indole-7-carboxylic acid], the pIC50 on Aβ1-40 [1] was 4.71.

`O=C(O)c1ccc2c(-c3c[nH]c4ccc([N+](=O)[O-])cc34)c[nH]c2c1` [QR-0327]: the pIC50 on Aβ1-40 [1] was 4.94.

Turning to `Oc1ccc(Nc2cccc(Nc3ccc(O)cc3)c2)cc1` [QR-0325], the pIC50 at Aβ1-40 [1] is 5.99.

As for `Oc1cccc(Nc2cccc(Nc3cccc(O)c3)c2)c1` [QR-0326], the pIC50 at Aβ1-40 [1] is 5.48.

Take `Oc1ccc(Nc2cccc(Nc3ccc(O)cc3)c2)cc1` [QR-0319]: the negative logarithm of the IC50 (pIC50) at Aβ1-40 [1] is 5.62.

Take `O=C(O)c1cccc2c(-c3cc4ccccc4o3)cn(Cc3ccccc3)c12` [QR-0284, 3-Benzofuran-2-yl-1-benzyl-1H-indole-7-carboxylic acid]: the pIC50 on Aβ1-40 [1] was less than 4.30.

In the case of `N#Cc1ccc2[nH]cc(-c3c[nH]c4ccc(O)cc34)c2c1` [QR-0276], the “effect … of assembly / monomer (SDS-PAGE)” value on Aβ1-40 [4] is given as “little effect”. Besides, the pIC50 on Aβ1-40 [1] was 4.78.

With `N#Cc1ccc2[nH]cc(-c3ccc4cc(O)ccc4c3)c2c1` [QR-0313], on Aβ1-40 [1], the pIC50 was 5.19.

As for `Oc1ccc2cc(-c3c[nH]c4ccc(O)cc34)ccc2c1` [QR-0225, 5-Hydroxy-3-(2-hydroxynaphthalen-6-yl)-1H-indole], the pIC50 on Aβ1-40 [1] is 5.15.

Consider `Oc1cc2ccccc2c(-c2cc3ccccc3o2)c1O` [QR-0164, 2-(2,3-Dihydroxynaphthalen-1-yl)-benzofuran], for which the pIC50 at Aβ1-40 [1] is 5.52. For the same molecule, the “inhibition of α-synuclein aggregation” value against α-synuclein (setting [6]) was “showed inhibition”.

Consider `COc1ccc2[nH]cc(-c3c[nH]c4ccc([N+](=O)[O-])cc34)c2c1` [QR-0171], for which, at Aβ1-40 [1], the pIC50 was 5.24.
